The results in this text go back to ChEMBL document CHEMBL1159357, “Labdane and kaurane diterpenoids from Plectranthus fruticosus” (2003).

Structures are written as SMILES. Values after ≈ are worked out from the molar mass of the structure shown. Active and inactive are the calls of the source. The calls are words filed in the database; no cut-off is given here.

In the assay the test system is Staphylococcus aureus. The assay can be described thus: Antimicrobial activity against Staphylococcus aureus. It counts as functional.
For `C=C/C(C)=C\C[C@@H]1C(=C)CC[C@@H]2C(C)(C)C[C@@H](OC(C)=O)C[C@@]12C`, the outcome was inactive.

Regarding `C=C1C[C@@]23CC[C@H]4[C@@](C)(CCC[C@@]4(C)C(=O)OC)[C@@H]2C[C@H](OC(C)=O)[C@H]1C3`, the result was inactive.

`C=C/C(C)=C/C[C@H]1C(=C)CC[C@H]2C(C)(C)[C@@H](OC(C)=O)[C@H](O)C[C@]12C`: the outcome was inactive.

As to `C[C@@]1(CO)CCC[C@]2(C)[C@@H]1CC[C@@]13C[C@H](CC[C@@H]21)[C@]1(C)O[C@H]31`, the outcome was inactive.

In the case of `COC(=O)[C@]1(C)CCC[C@@]2(C)[C@@H]3CC[C@H]4C[C@@]3(CC[C@@H]21)[C@H]1O[C@@]41C`, the result was inactive.

As a reminder, the MIC is the least concentration at which growth counts as inhibited. Read a high MIC as a need for much substance. Regarding `C[C@@]12CCC[C@@](C)(C(=O)O)[C@H]1CC[C@@]13C[C@H](CC[C@@H]21)[C@]1(C)O[C@H]31`, the minimum inhibitory concentration (MIC) stood at 31.2 µg/mL (≈ 98.1 µM).

`COC(=O)[C@]1(C)CCC[C@@]2(C)[C@@H]3C[C@H](OC(C)=O)[C@H]4C[C@]3(C=C4C)CC[C@@H]21`: the outcome was inactive.
